# Positions count from the first letter of the chain named.
# How the values were obtained:
# Assay in all cases: microscale thermophoresis
# Assay type in all cases: binding
# SbXAT (Sb3G094600) [1] = target: SbXAT (Sb3G094600) (Sorghum bicolor, UniProt A0A1B6Q2C2, F596Y)
# SbXXT (Sb2G401600) [2] = target: T1, SbXXT (Sb2G401600) (Sorghum bicolor, UniProt C5X460)
# T1 sequence (C5X460 93-554): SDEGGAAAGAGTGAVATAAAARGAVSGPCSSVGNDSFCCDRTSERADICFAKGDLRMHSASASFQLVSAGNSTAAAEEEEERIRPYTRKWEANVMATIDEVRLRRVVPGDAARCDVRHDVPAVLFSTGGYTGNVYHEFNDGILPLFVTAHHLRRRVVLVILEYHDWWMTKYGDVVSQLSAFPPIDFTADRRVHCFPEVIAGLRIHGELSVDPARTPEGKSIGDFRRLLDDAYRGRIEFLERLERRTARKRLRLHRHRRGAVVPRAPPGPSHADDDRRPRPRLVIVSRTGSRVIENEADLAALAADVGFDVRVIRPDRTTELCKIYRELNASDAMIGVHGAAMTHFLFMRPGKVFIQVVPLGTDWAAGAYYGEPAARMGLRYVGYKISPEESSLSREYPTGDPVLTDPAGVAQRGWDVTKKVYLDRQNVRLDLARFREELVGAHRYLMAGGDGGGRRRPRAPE
# SbXAT (Sb3G094600) [3] = target: SbXAT (Sb3G094600) (Sorghum bicolor, UniProt A0A1B6Q2C2)
# SbXAT (Sb3G094600) (Sorghum bicolor, UniProt A0A1B6Q2C2), sequence (A0A1B6Q2C2 198-685): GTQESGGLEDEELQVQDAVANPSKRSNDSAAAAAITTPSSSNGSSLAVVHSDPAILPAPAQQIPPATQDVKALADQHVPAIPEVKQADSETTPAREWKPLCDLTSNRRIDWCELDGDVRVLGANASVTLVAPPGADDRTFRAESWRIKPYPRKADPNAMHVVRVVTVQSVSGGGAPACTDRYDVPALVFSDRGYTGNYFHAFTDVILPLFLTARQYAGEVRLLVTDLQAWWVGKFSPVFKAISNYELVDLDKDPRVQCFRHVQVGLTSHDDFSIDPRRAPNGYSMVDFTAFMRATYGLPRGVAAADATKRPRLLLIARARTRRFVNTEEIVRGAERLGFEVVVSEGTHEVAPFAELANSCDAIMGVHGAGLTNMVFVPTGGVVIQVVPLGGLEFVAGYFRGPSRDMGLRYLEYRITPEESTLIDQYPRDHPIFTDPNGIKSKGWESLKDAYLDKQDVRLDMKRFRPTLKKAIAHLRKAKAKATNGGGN
# SbXXT (Sb2G401600) [4] = target: T2, SbXXT (Sb2G401600) (Sorghum bicolor, UniProt C5X460, Y462F)
# T2 sequence (C5X460 93-554 Y462F): T1 sequence (C5X460 93-554) with Y370F
# SbXAT (Sb3G094600) (Sorghum bicolor, UniProt A0A1B6Q2C2, F596Y), sequence (A0A1B6Q2C2 198-685 F596Y): as the sequence (A0A1B6Q2C2 198-685) above, with F399Y counted along it
Kd (SbXAT (Sb3G094600) [1]) [µM],Kd (SbXXT (Sb2G401600) [2]) [µM],Kd (SbXAT (Sb3G094600) [3]) [µM],Kd (SbXXT (Sb2G401600) [4]) [µM],Structure (SMILES)
221,13,373,15,O=c1ccn([C@@H]2O[C@H](COP(=O)(O)OP(=O)(O)O[C@H]3OC[C@@H](O)[C@H](O)[C@H]3O)[C@@H](O)[C@H]2O)c(=O)[nH]1 [UDP-Xyl]
531,26,244,19,O=c1ccn([C@@H]2O[C@H](COP(=O)(O)OP(=O)(O)O[C@H]3O[C@@H](CO)[C@H](O)[C@H]3O)[C@@H](O)[C@H]2O)c(=O)[nH]1 [UDP-Araf]

# Reference: article doi:10.1101/2025.07.18.665579v1 (biorxiv, 2025)
